Among the data in US8106055B2, “Substituted amide compounds” (Gruenenthal GmbH, priority 2007, dated 2012) are inhibition values, retold here.

This experiment deals with T1, human μ opiate receptor (Homo sapiens, UniProt P35372).
T1 construct: purchased PerkinElmer Life Sciences, Zaventem, Belgium RB-HOM; host or cells: CHO-K1 cells (membrane preparation)
T1 sequence (P35372 whole entry): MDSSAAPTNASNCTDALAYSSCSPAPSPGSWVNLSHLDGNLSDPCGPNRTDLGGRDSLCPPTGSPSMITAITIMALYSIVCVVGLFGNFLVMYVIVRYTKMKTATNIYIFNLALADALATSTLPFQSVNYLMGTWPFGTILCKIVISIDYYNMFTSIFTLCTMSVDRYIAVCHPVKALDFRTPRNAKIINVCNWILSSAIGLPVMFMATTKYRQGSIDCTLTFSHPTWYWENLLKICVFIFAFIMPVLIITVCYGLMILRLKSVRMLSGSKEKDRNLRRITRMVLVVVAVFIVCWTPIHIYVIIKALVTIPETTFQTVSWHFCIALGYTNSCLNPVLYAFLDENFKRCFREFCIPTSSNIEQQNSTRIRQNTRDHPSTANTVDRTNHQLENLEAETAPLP
As to the kind of experiment: Affinity for the human μ opiate receptor ([3H]-naloxone displacement, CHO-K1 receptor membrane preparation, SPA). In kind it is binding. To be noted: test concentration of 1 μM; read-out: μ (binding on the μ opioid receptor, % inhibition). The method, boiled down: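 Test compounds, 1 nmol/l [3H]-naloxone and CHO-K1 membranes bearing the human μ opiate receptor are combined with WGA-SPA beads. After 90 minutes at room temperature, plates are centrifuged and radioactivity counted. Specific-binding inhibition at 1 μmol/l is given in percent.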
For `CN(C)C(c1cccs1)C1CCC(CCNC(=O)COC2CCN(S(=O)(=O)c3ccc(F)cc3)C2)CC1` (stereo not drawn) [Example 138, N-(2-(4-((dimethylamino)(thiophen-2-yl)methyl)cyclohexyl)ethyl)-2-(1-(4-fluorophenylsulfonyl)pyrrolidin-3-yloxy)acetamide], the inhibition at 1 µM was found to be 87%. For `COc1cc(C)c(S(=O)(=O)N2CCCC(OCC(=O)NCC3CCC(C(c4cccc(F)c4)N(C)C)CC3)C2)c(C)c1C` (stereo not drawn) [Example 145, N-((4-((dimethylamino)(3-fluorophenyl)methyl)cyclohexyl)methyl)-2-(1-(4-methoxy-2,3,6-trimethylphenylsulfonyl)piperidin-3-yloxy)acetamide], the inhibition at 1 µM came to 87%. As for `CN(C)C(c1cccs1)C1CCC(CNC(=O)COC2CCCCC2N(C)S(=O)(=O)c2ccc(Cl)c(Cl)c2)CC1` (stereo not drawn) [Example 31, 2-(2-(3,4-dichloro-N-methylphenylsulfonamido)cyclohexyloxy)-N-((4-((dimethylamino)(thiophen-2-yl)methyl)cyclohexyl)methyl)acetamide], the inhibition at 1 µM was 97%. With `CN(C)C(c1cccc(F)c1)C1CCC(NC(=O)COCCN(C)S(=O)(=O)c2ccc(Cl)cc2)CC1` (stereo not drawn) [Example 196, 2-(2-(4-chloro-N-methylphenylsulfonamido)ethoxy)-N-(4-((dimethylamino)(3-fluorophenyl)methyl)cyclohexyl)acetamide], the inhibition at 1 µM is 81%.

For `Cc1cc(C)c(S(=O)(=O)N2CCC(OCC(=O)NC3CCC(C(c4cccc(F)c4)N(C)C)CC3)C2)c(C)c1` (stereo not drawn) [Example 140, N-(4-((dimethylamino)(3-fluorophenyl)methyl)cyclohexyl)-2-(1-(mesitylsulfonyl)pyrrolidin-3-yloxy)acetamide], the inhibition at 1 µM was 83%.

As to `Cc1ccc(S(=O)(=O)N2CCC(OCC(=O)NC3CCC(C(c4cccc(F)c4)N(C)C)CC3)C2)cc1` (stereo not drawn) [Example 167, N-(4-((dimethylamino)(3-fluorophenyl)methyl)cyclohexyl)-2-(1-tosylpyrrolidin-3-yloxy)acetamide], the inhibition at 1 µM turned out to be 82%. `COc1cc(C)c(S(=O)(=O)N2CCN(CCOCC(=O)NC3CCC(C(c4ccccc4)N(C)C)CC3)CC2)c(C)c1C` (stereo not drawn) [Example 20, N-(4-((dimethylamino)(phenyl)methyl)cyclohexyl)-2-(2-(4-(4-methoxy-2,3,6-trimethylphenylsulfonyl)piperazin-1-yl)ethoxy)acetamide]: the inhibition at 1 µM worked out at 97%. With `Cc1ccc(S(=O)(=O)N2CCC(OCC(=O)NCC3CCC(C(c4cccc(F)c4)N(C)C)CC3)C2)cc1` (stereo not drawn) [Example 185, N-((4-((dimethylamino)(3-fluorophenyl)methyl)cyclohexyl)methyl)-2-(1-tosylpyrrolidin-3-yloxy)acetamide], the inhibition at 1 µM stood at 78%. With `CN(C)C(c1cccc(F)c1)C1CCC(NC(=O)COC2CCN(S(=O)(=O)c3cccc(C(F)(F)F)c3)C2)CC1` (stereo not drawn) [Example 139, N-(4-((dimethylamino)(3-fluorophenyl)methyl)cyclohexyl)-2-(1-(3-(trifluoromethyl)phenylsulfonyl)pyrrolidin-3-yloxy)acetamide], the inhibition at 1 µM stood at 83%. For `COc1cc(C)c(S(=O)(=O)N2CCC(OCC(=O)NCCC3CCC(C(c4cccs4)N(C)C)CC3)CC2)c(C)c1C` (stereo not drawn) [Example 177, N-(2-(4-((dimethylamino)(thiophen-2-yl)methyl)cyclohexyl)ethyl)-2-(1-(4-methoxy-2,3,6-trimethylphenylsulfonyl)piperidin-4-yloxy)acetamide], the inhibition at 1 µM was 88%. In the case of `COc1cc(C)c(S(=O)(=O)N(CCOCC(=O)NC2CCC(C(c3ccccc3)N(C)C)CC2)Cc2ccccc2)c(C)c1C` (stereo not drawn) [Example 193, 2-(2-(N-benzyl-4-methoxy-2,3,6-trimethylphenylsulfonamido)ethoxy)-N-(4-((dimethylamino) (phenyl)methyl)cyclohexyl)acetamide], the inhibition at 1 µM is 85%.

For `CN(C)C(c1cccc(F)c1)C1CCC(NC(=O)COC2CCN(S(=O)(=O)c3ccc(F)cc3)C2)CC1` (stereo not drawn) [Example 172, N-(4-((dimethylamino)(3-fluorophenyl)methyl)cyclohexyl)-2-(1-(4-fluorophenylsulfonyl)pyrrolidin-3-yloxy)acetamide], the inhibition at 1 µM stood at 78%. For `COc1ccc(S(=O)(=O)N(C)CCOCC(=O)NCC2CCC(C(c3ccccc3)N(C)C)CC2)cc1OC` (stereo not drawn) [Example 169, 2-(2-(3,4-dimethoxy-N-methylphenylsulfonamido)ethoxy)-N-((4-((dimethylamino)(phenyl)methyl)cyclohexyl)methyl)acetamide], the inhibition at 1 µM was found to be 85%. For `CN(C)C(c1cccc(F)c1)C1CCC(NC(=O)COCCN(Cc2ccccc2)S(=O)(=O)c2ccccc2)CC1` (stereo not drawn) [Example 175, 2-(2-(N-benzylphenylsulfonamido)ethoxy)-N-(4-((dimethylamino)(3-fluorophenyl)methyl)cyclohexyl)acetamide], the inhibition at 1 µM came to 85%. For `CN(C)C(c1ccccc1)C1CCC(NC(=O)COCCN(C)S(=O)(=O)c2c(F)c(F)c(F)c(F)c2F)CC1` (stereo not drawn) [Example 136, N-(4-((dimethylamino)(phenyl)methyl)cyclohexyl)-2-(2-(2,3,4,5,6-pentafluoro-N-methylphenylsulfonamido)ethoxy)acetamide], the inhibition at 1 µM was determined as 89%. With `CN(C)C(c1cccs1)C1CCC(NC(=O)COCCN(C)S(=O)(=O)c2cccc(C(F)(F)F)c2)CC1` (stereo not drawn) [Example 152, N-(4-((dimethylamino)(thiophen-2-yl)methyl)cyclohexyl)-2-(2-(N-methyl-3-(trifluoromethyl)phenylsulfonamido)ethoxy)acetamide], the inhibition at 1 µM worked out at 89%. Take `CN(C)C(c1cccc(F)c1)C1CCC(NC(=O)COCCN(C)S(=O)(=O)c2c(Cl)cccc2Cl)CC1` (stereo not drawn) [Example 171, 2-(2-(2,6-dichloro-N-methylphenylsulfonamido)ethoxy)-N-(4-((dimethylamino)(3-fluorophenyl)methyl)cyclohexyl)acetamide]: the inhibition at 1 µM turned out to be 84%. As for `COc1ccc(S(=O)(=O)N2CCC(OCC(=O)NC3CCC(C(c4cccs4)N(C)C)CC3)C2)cc1OC` (stereo not drawn) [Example 155, 2-(1-(3,4-dimethoxyphenylsulfonyl)pyrrolidin-3-yloxy)-N-(4-((dimethylamino)(thiophen-2-yl)methyl)cyclohexyl)acetamide], the inhibition at 1 µM was 88%. For the compound `COc1ccc(S(=O)(=O)N2Cc3ccccc3CC2COCC(=O)NCCC2CCC(C(c3cccc(F)c3)N(C)C)CC2)cc1` (stereo not drawn) [Example 190, N-(2-(4-((dimethylamino) (3-fluorophenyl)methyl)cyclohexyl)ethyl)-2-((2-(4-methoxyphenylsulfonyl)-1,2,3,4-tetrahydroisoquinolin-3-yl)methoxy)acetamide], the inhibition at 1 µM worked out at 83%. The figure for `COc1cc(C)c(S(=O)(=O)N2CCC(OCC(=O)NCC3CCC(C(c4ccccc4)N(C)C)CC3)C2)c(C)c1` (stereo not drawn) [Example 173, N-((4-((dimethylamino)(phenyl)methyl)cyclohexyl)methyl)-2-(1-(4-methoxy-2,6-dimethylphenylsulfonyl)pyrrolidin-3-yloxy)acetamide] is 87%. For `CN(C)C(c1cccc(F)c1)C1CCC(CCNC(=O)COCCN(C)S(=O)(=O)c2cccc(C(F)(F)F)c2)CC1` (stereo not drawn) [Example 192, N-(2-(4-((dimethylamino)(3-fluorophenyl)methyl)cyclohexyl)ethyl)-2-(2-(N-methyl-3-(trifluoromethyl)phenylsulfonamido)ethoxy)acetamide] the value was 88%. For the compound `CN(C)C(c1ccccc1)C1CCC(CNC(=O)COCCN(C)S(=O)(=O)c2c(Cl)cc(Cl)cc2Cl)CC1` (stereo not drawn) [Example 14, N-((4-((dimethylamino)(phenyl)methyl)cyclohexyl)methyl)-2-(2-(2,4,6-trichloro-N-methylphenylsulfonamido)ethoxy)acetamide], the inhibition at 1 µM was found to be 98%.

Turning to `COc1ccc(S(=O)(=O)N2Cc3ccccc3CC2COCC(=O)NCC2CCC(C(c3cccc(F)c3)N(C)C)CC2)cc1` (stereo not drawn) [Example 163, N-((4-((dimethylamino)(3-fluorophenyl)methyl)cyclohexyl)methyl)-2-((2-(4-methoxyphenylsulfonyl)-1,2,3,4-tetrahydroisoquinolin-3-yl)methoxy)acetamide], the inhibition at 1 µM came out at 87%.

Regarding `COc1cc(C)c(S(=O)(=O)N2CCC(CCOCC(=O)NC3CCC(C(c4ccc(F)cc4)N(C)C)CC3)CC2)c(C)c1C` (stereo not drawn) [Example 178, N-(4-((dimethylamino)(4-fluorophenyl)methyl)cyclohexyl)-2-(2-(1-(4-methoxy-2,3,6-trimethylphenylsulfonyl)piperidin-4-yl)ethoxy)acetamide], the inhibition at 1 µM amounted to 81%.

For the compound `CN(C)C(c1cccc(F)c1)C1CCC(CNC(=O)COC2CCCCC2N(C)S(=O)(=O)c2ccc(Cl)c(Cl)c2)CC1` (stereo not drawn) [Example 164, 2-(2-(3,4-dichloro-N-methylphenylsulfonamido)cyclohexyloxy)-N-((4-((dimethylamino)(3-fluorophenyl)methyl)cyclohexyl)methyl)acetamide], the inhibition at 1 µM was 86%. On to `CN(C)C(c1ccccc1)C1CCC(CNC(=O)COCC2CCCN2S(=O)(=O)c2ccc(Cl)c(Cl)c2)CC1` (stereo not drawn) [Example 18, 2-((1-(3,4-dichlorophenylsulfonyl)pyrrolidin-2-yl)methoxy)-N-((4-((dimethylamino)(phenyl)methyl)cyclohexyl)methyl)acetamide], for which the inhibition at 1 µM came out at 98%. Take `COc1cc(C)c(S(=O)(=O)N2CCN(CCOCC(=O)NCCC3CCC(C(c4cccc(F)c4)N(C)C)CC3)CC2)c(C)c1C` (stereo not drawn) [Example 200, N-(2-(4-((dimethylamino)(3-fluorophenyl)methyl)cyclohexyl)ethyl)-2-(2-(4-(4-methoxy-2,3,6-trimethylphenylsulfonyl)piperazin-1-yl)ethoxy)acetamide]: the inhibition at 1 µM stood at 80%.
